Results as given in patent US11076594B2, “Pyrazolone compound or salt thereof, preparation method therefor, herbicide composition and use thereof” (QINGDAO KINGAGROOT CHEMICAL COMPOUNDS CO., LTD., priority 2015, dated 2021).
Each block holds one compound with its values, some of them ahead of it.

What was measured:
Format in all cases: in vivo
Conditions in all cases: post-emergence spray at 4-5 leaf stage, 250 g/ha active ingredient with 450 kg/ha water, rated after 3 weeks in greenhouse
[1] = tested on: Indian mallow; test: weed control effect in post-emergence stage (Table 1); set-up: key: Level 10: completely dead; Level 9: above 95% growth control rate; Level 8: above 90% growth control rate; Level 7: above 80% growth control rate; Level 6: above 70% growth control rate; Level 5: above 60% growth control rate; Level 4: above 50% growth control rate; Level 3: above 20% growth control rate; Level 2: 5%-20% growth control rate; Level 1: below 5% growth control rate
Procedure, shortened: (§1)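 Weed and crop seeds sown in soil-filled pots under 0.5-2 cm soil, greenhouse-grown, then sprayed at 4-5 leaf stage (2-3 weeks after sowing) with compound in acetone/Tween 80/water. Fresh weight growth control rate assessed after 3 weeks in greenhouse.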

[2] = tested on: bidens bipinnata; test: as above; set-up: key: Level 10: completely dead; Level 9: above 95% growth control rate; Level 8: above 90% growth control rate; Level 7: above 80% growth control rate; Level 6: above 70% growth control rate; Level 5: above 60% growth control rate; Level 4: above 50% growth control rate; Level 3: above 20% growth control rate; Level 2: 5%-20% growth control rate; Level 1: below 5% growth control rate
Procedure, shortened: as §1

[3] = tested on: crab grass; test: as above; set-up: key: Level 10: completely dead; Level 9: above 95% growth control rate; Level 8: above 90% growth control rate; Level 7: above 80% growth control rate; Level 6: above 70% growth control rate; Level 5: above 60% growth control rate; Level 4: above 50% growth control rate; Level 3: above 20% growth control rate; Level 2: 5%-20% growth control rate; Level 1: below 5% growth control rate
Procedure, shortened: as §1

[4] = tested on: echinochloa; test: as above; set-up: key: Level 10: completely dead; Level 9: above 95% growth control rate; Level 8: above 90% growth control rate; Level 7: above 80% growth control rate; Level 6: above 70% growth control rate; Level 5: above 60% growth control rate; Level 4: above 50% growth control rate; Level 3: above 20% growth control rate; Level 2: 5%-20% growth control rate; Level 1: below 5% growth control rate
Procedure, shortened: as §1

[5] = tested on: foxtail; test: as above; set-up: key: Level 10: completely dead; Level 9: above 95% growth control rate; Level 8: above 90% growth control rate; Level 7: above 80% growth control rate; Level 6: above 70% growth control rate; Level 5: above 60% growth control rate; Level 4: above 50% growth control rate; Level 3: above 20% growth control rate; Level 2: 5%-20% growth control rate; Level 1: below 5% growth control rate
Procedure, shortened: as §1

[6] = tested on: rorippa indica; test: as above; set-up: key: Level 10: completely dead; Level 9: above 95% growth control rate; Level 8: above 90% growth control rate; Level 7: above 80% growth control rate; Level 6: above 70% growth control rate; Level 5: above 60% growth control rate; Level 4: above 50% growth control rate; Level 3: above 20% growth control rate; Level 2: 5%-20% growth control rate; Level 1: below 5% growth control rate
Procedure, shortened: as §1

[7] = tested on: corn; test: post-emergence stage experiment, crop (Table 1)
Procedure, shortened: as §1

[8] = tested on: wheat; test: post-emergence stage experiment, crop (Table 1)
Procedure, shortened: as §1

[9] = tested on: rice; test: post-emergence stage experiment, crop (Table 1); set-up: key: Level 10: completely dead; Level 9: above 95% growth control rate; Level 8: above 90% growth control rate; Level 7: above 80% growth control rate; Level 6: above 70% growth control rate; Level 5: above 60% growth control rate; Level 4: above 50% growth control rate; Level 3: above 20% growth control rate; Level 2: 5%-20% growth control rate; Level 1: below 5% growth control rate
Procedure, shortened: as §1

Structure (SMILES): CCOc1c(C(=O)Oc2c(C(=O)c3ccc(C(F)(F)F)c(-n4cccn4)c3Cl)c(C3CC3)nn2C)cnn1C [Compound 074]
weed control effect, Indian mallow (level) [1]: 10
weed control effect, Bidens bipinnata (level) [2]: 4 (Level 4: above 50% growth control rate)
weed control effect, Crab grass (level) [3]: 4 (Level 4: above 50% growth control rate)
weed control effect, Echinochloa (level) [4]: 6 (Level 6: above 70% growth control rate)
weed control effect, Green foxtail (level) [5]: 9 (Level 9: above 95% growth control rate)
weed control effect, Rorippa indica (level) [6]: 10
effect on crop, Corn (level) [7]: 3 (Level 3: above 20% growth control rate)
effect on crop, Wheat (level) [8]: 1 (Level 1: below 5% growth control rate)
effect on crop, Rice (level) [9]: 9 (Level 9: above 95% growth control rate)

Structure (SMILES): CCOC(=O)Oc1c(C(=O)c2ccc(C(F)(F)F)c(-n3ccc(C)n3)c2Cl)c(C)nn1C [Compound 078]
weed control effect, Indian mallow (level) [1]: 10
weed control effect, Bidens bipinnata (level) [2]: 10
weed control effect, Crab grass (level) [3]: 4 (Level 4: above 50% growth control rate)
weed control effect, Echinochloa (level) [4]: 7 (Level 7: above 80% growth control rate)
weed control effect, Green foxtail (level) [5]: 7 (Level 7: above 80% growth control rate)
weed control effect, Rorippa indica (level) [6]: 0
effect on crop, Corn (level) [7]: 0
effect on crop, Wheat (level) [8]: 0
effect on crop, Rice (level) [9]: 4 (Level 4: above 50% growth control rate)

Structure (SMILES): Cc1cnn(-c2c(C(F)(F)F)ccc(C(=O)c3cnn(C)c3O)c2Cl)c1 [Compound 080]
weed control effect, Indian mallow (level) [1]: 7 (Level 7: above 80% growth control rate)
weed control effect, Bidens bipinnata (level) [2]: 8 (Level 8: above 90% growth control rate)
weed control effect, Crab grass (level) [3]: 6 (Level 6: above 70% growth control rate)
weed control effect, Echinochloa (level) [4]: 5 (Level 5: above 60% growth control rate)
weed control effect, Green foxtail (level) [5]: 10
weed control effect, Rorippa indica (level) [6]: 7 (Level 7: above 80% growth control rate)
effect on crop, Corn (level) [7]: 3 (Level 3: above 20% growth control rate)
effect on crop, Wheat (level) [8]: 2 (Level 2: 5%-20% growth control rate)
effect on crop, Rice (level) [9]: 1 (Level 1: below 5% growth control rate)

Structure (SMILES): CCOC(=O)Oc1c(C(=O)c2ccc(C(F)(F)F)c(-n3cc(C)cn3)c2Cl)c(C)nn1C [Compound 085]
weed control effect, Indian mallow (level) [1]: 10
weed control effect, Bidens bipinnata (level) [2]: 10
weed control effect, Crab grass (level) [3]: 8 (Level 8: above 90% growth control rate)
weed control effect, Echinochloa (level) [4]: 9 (Level 9: above 95% growth control rate)
weed control effect, Green foxtail (level) [5]: 10
weed control effect, Rorippa indica (level) [6]: 2 (Level 2: 5%-20% growth control rate)
effect on crop, Corn (level) [7]: 0
effect on crop, Wheat (level) [8]: 0
effect on crop, Rice (level) [9]: 6 (Level 6: above 70% growth control rate)

Structure (SMILES): Cc1cnn(-c2c(C(F)(F)F)ccc(C(=O)c3c(C4CC4)nn(C)c3O)c2Cl)c1 [Compound 089]
weed control effect, Indian mallow (level) [1]: 10
weed control effect, Bidens bipinnata (level) [2]: 3 (Level 3: above 20% growth control rate)
weed control effect, Crab grass (level) [3]: 1 (Level 1: below 5% growth control rate)
weed control effect, Echinochloa (level) [4]: 5 (Level 5: above 60% growth control rate)
weed control effect, Green foxtail (level) [5]: 2 (Level 2: 5%-20% growth control rate)
weed control effect, Rorippa indica (level) [6]: 9 (Level 9: above 95% growth control rate)
effect on crop, Corn (level) [7]: 1 (Level 1: below 5% growth control rate)
effect on crop, Wheat (level) [8]: 0
effect on crop, Rice (level) [9]: 1 (Level 1: below 5% growth control rate)

Structure (SMILES): Cc1cc(C)n(-c2c(C(F)(F)F)ccc(C(=O)c3c(C)nn(C)c3OC(=O)c3cn(C)nc3C)c2Cl)n1 [Compound 094]
weed control effect, Indian mallow (level) [1]: 3 (Level 3: above 20% growth control rate)
weed control effect, Bidens bipinnata (level) [2]: 2 (Level 2: 5%-20% growth control rate)
weed control effect, Crab grass (level) [3]: 3 (Level 3: above 20% growth control rate)
weed control effect, Echinochloa (level) [4]: 1 (Level 1: below 5% growth control rate)
weed control effect, Green foxtail (level) [5]: 1 (Level 1: below 5% growth control rate)
weed control effect, Rorippa indica (level) [6]: 0
effect on crop, Corn (level) [7]: 1 (Level 1: below 5% growth control rate)
effect on crop, Wheat (level) [8]: 0
effect on crop, Rice (level) [9]: 0

Structure (SMILES): CCn1ncc(C(=O)c2ccc(C(F)(F)F)c(N3CCCC3=O)c2Cl)c1OC(=O)c1cn(C)nc1C [Compound 097]
weed control effect, Indian mallow (level) [1]: 10
weed control effect, Bidens bipinnata (level) [2]: 10
weed control effect, Crab grass (level) [3]: 3 (Level 3: above 20% growth control rate)
weed control effect, Echinochloa (level) [4]: 10
weed control effect, Green foxtail (level) [5]: 10
weed control effect, Rorippa indica (level) [6]: 10
effect on crop, Corn (level) [7]: 1 (Level 1: below 5% growth control rate)
effect on crop, Wheat (level) [8]: 1 (Level 1: below 5% growth control rate)
effect on crop, Rice (level) [9]: 7 (Level 7: above 80% growth control rate)

Structure (SMILES): CCn1nc(C)c(C(=O)c2ccc(C(F)(F)F)c(N3CCCC3=O)c2Cl)c1OC(=O)c1cn(C)nc1C [Compound 099]
weed control effect, Indian mallow (level) [1]: 3 (Level 3: above 20% growth control rate)
weed control effect, Bidens bipinnata (level) [2]: 10
weed control effect, Crab grass (level) [3]: 10
weed control effect, Echinochloa (level) [4]: 10
weed control effect, Green foxtail (level) [5]: 10
weed control effect, Rorippa indica (level) [6]: 10
effect on crop, Corn (level) [7]: 4 (Level 4: above 50% growth control rate)
effect on crop, Wheat (level) [8]: 4 (Level 4: above 50% growth control rate)
effect on crop, Rice (level) [9]: 10

Now from value to compound, other results behind:

effect on crop, Corn (level) [7]: 2 (Level 2: 5%-20% growth control rate)
effect on crop, Wheat (level) [8]: 2 (Level 2: 5%-20% growth control rate)
effect on crop, Rice (level) [9]: 10
Structure (SMILES): CCc1nn(C)c(O)c1C(=O)c1ccc(C(F)(F)F)c(N2CCCC2=O)c1Cl [Compound 100]
weed control effect, Indian mallow (level) [1]: 9 (Level 9: above 95% growth control rate)
weed control effect, Bidens bipinnata (level) [2]: 9 (Level 9: above 95% growth control rate)
weed control effect, Crab grass (level) [3]: 3 (Level 3: above 20% growth control rate)
weed control effect, Echinochloa (level) [4]: 10
weed control effect, Green foxtail (level) [5]: 10
weed control effect, Rorippa indica (level) [6]: 10

effect on crop, Corn (level) [7]: 2 (Level 2: 5%-20% growth control rate)
effect on crop, Rice (level) [9]: 10
Structure (SMILES): CCc1nn(C)c(OC(=O)c2cn(C)nc2C)c1C(=O)c1ccc(C(F)(F)F)c(N2CCCC2=O)c1Cl [Compound 101]
weed control effect, Indian mallow (level) [1]: 10
weed control effect, Bidens bipinnata (level) [2]: 9 (Level 9: above 95% growth control rate)
weed control effect, Crab grass (level) [3]: 4 (Level 4: above 50% growth control rate)
weed control effect, Echinochloa (level) [4]: 10
weed control effect, Green foxtail (level) [5]: 10
weed control effect, Rorippa indica (level) [6]: 10
effect on crop, Wheat (level) [8]: 3 (Level 3: above 20% growth control rate)

effect on crop, Rice (level) [9]: 10
Structure (SMILES): CCn1nc(C2CC2)c(C(=O)c2ccc(C(F)(F)F)c(N3CCCC3=O)c2Cl)c1O [Compound 104]
weed control effect, Indian mallow (level) [1]: 10
weed control effect, Bidens bipinnata (level) [2]: 7 (Level 7: above 80% growth control rate)
weed control effect, Crab grass (level) [3]: 9 (Level 9: above 95% growth control rate)
weed control effect, Echinochloa (level) [4]: 10
weed control effect, Green foxtail (level) [5]: 10
weed control effect, Rorippa indica (level) [6]: 10
effect on crop, Corn (level) [7]: 4 (Level 4: above 50% growth control rate)
effect on crop, Wheat (level) [8]: 5 (Level 5: above 60% growth control rate)

effect on crop, Rice (level) [9]: 10
Structure (SMILES): CCn1nc(C2CC2)c(C(=O)c2ccc(C(F)(F)F)c(N3CCCC3=O)c2Cl)c1OC(=O)c1cn(C)nc1C [Compound 105]
weed control effect, Indian mallow (level) [1]: 9 (Level 9: above 95% growth control rate)
weed control effect, Bidens bipinnata (level) [2]: 10
weed control effect, Crab grass (level) [3]: 10
weed control effect, Echinochloa (level) [4]: 10
weed control effect, Green foxtail (level) [5]: 10
weed control effect, Rorippa indica (level) [6]: 10
effect on crop, Corn (level) [7]: 5 (Level 5: above 60% growth control rate)
effect on crop, Wheat (level) [8]: 5 (Level 5: above 60% growth control rate)
